For one substance, EC50 results are on record in patent US5424394A, “Synthetic preparation of amylin and amylin analogues” (priority 1993, dated 1995).

In the assay the test system is isolated rat soleus muscle. Briefly: insulin-stimulated incorporation of labelled glucose into glycogen in isolated rat soleus muscle (soleus muscle assay). Format: cell-based. The source says: According to the present invention, we have developed methods for the efficient synthesis of amylin and amylin analogs which result in peptides of high purity which are substantially free of deletion peptides and other contaminating peptides and which show reproducibly high biological activity as measured by assays of its ability to cause resistance to insulin in vitro by inhibiting insulin-stimulated incorporation of labelled glucose into glycogen in isolated rat soleus muscle.
The present invention also provides synthetic human amylin produced by solid phase peptide synthesis which has an EC50 of about 2.5 nanomoles/liter±0.3 log units or less according to an assay of insulin-stimulated incorporation of labelled glucose into glycogen in isolated rat soleus muscle. In an especially preferred aspect, such synthetic human amylin is substantially free of deletion and other contaminating peptides. […]

Like-named read-outs stand apart in the source and are kept apart here. Ends that are not written are not given here.

Take “Human Amylin (KCNTATCATQRLANFLVHSSNNFGAILSSTNVGSNTY-NH2; cysteine pairing not given here; UniProt P10997 34-70, looked up) [37-amino acid peptide with internal disulfide bond and C-terminal amide, made by solid phase peptide synthesis]”: the EC50 is below 5 nM (peptide at least about 95% pure after preparative RP-HPLC, read-out: EC50 as measured by soleus muscle assay) and at most 2.5 nM (±0.3 log units, inhibition of insulin-stimulated glycogen synthesis, read-out: EC50 according to an assay of insulin-stimulated incorporation of labelled glucose into glycogen in isolated rat soleus muscle).
